Consider three molecules from patent US20100286149A1, “NOVEL BENZAMIDE DERIVATIVES USEFUL AS POTASSIUM CHANNEL MODULATORS” (priority 2007, published 2010).

The structures appear in SMILES notation.

Data set [1] addresses T1, BK channels heterologously expressed in Xenopus laevis oocytes (Homo sapiens, UniProt Q12791).
T1 construct: expressed in transfected cells; host or cells: Xenopus laevis oocytes
The data set is described as follows: BK channel opening activity, two-electrode voltage clamp in Xenopus laevis oocytes. Format: cell-based. The procedure:
In this example the BK channel opening activity of Compound 12 (i.e. N-[5-Chloro-2-(1H-tetrazol-5-yl)-phenyl]-4-dipropylsulfamoyl-benzamide) is determined using BK channels heterologously expressed in Xenopus laevis oocytes.
The electrical current through the BK channel was measured using conventional two-electrode voltage clamp. BK currents were activated by repeating ramp protocols. In brief, the membrane potential was continuously changed from −120 mV to +120 mV within a 2 s period. The threshold for BK activation is approximately +30 mV under control conditions. Compounds were applied for 100 s during which the ramp protocol was repeated 10 times with 10 s intervals. In between the ramp protocols the membrane potential was clamped at −80 mV. The first three compound applications were control blanks where the current level is allowed to stabilize.
In order to evaluate the ability of the compounds to shift the BK activation curve towards lower membrane potentials, the BK current was transformed into conductance by using Ohm's law g=I/(Ememb−Erev), where g is the conductance, I is the current, Ememb is the membrane potential and Erev is the reversal potential. The extracellular solution for these experiments contained 2.5 mM K+ and the intracellular K+ concentration of an oocyte was estimated to be 100 mM. Under those conditions, Nernst equation predicts a reversal potential of Erev=−93.2 mV. The control conductance level at a membrane potential of +100 mV was calculated, and the compound effect was evaluated as the potential difference, ΔV, to the membrane potential at which the same conductance level was obtained in the presence of compound.
The concentration response curve for this potential difference was fitted to the sigmoidal logistic equation: ΔV=ΔVmax/(1+(EC50/[compound])^n), where ΔVmax represents the maximal left shift of the BK activation curve, EC50 is the concentration causing a half maximal response, and n is the slope coefficient.

T1 sequence (Q12791 whole entry): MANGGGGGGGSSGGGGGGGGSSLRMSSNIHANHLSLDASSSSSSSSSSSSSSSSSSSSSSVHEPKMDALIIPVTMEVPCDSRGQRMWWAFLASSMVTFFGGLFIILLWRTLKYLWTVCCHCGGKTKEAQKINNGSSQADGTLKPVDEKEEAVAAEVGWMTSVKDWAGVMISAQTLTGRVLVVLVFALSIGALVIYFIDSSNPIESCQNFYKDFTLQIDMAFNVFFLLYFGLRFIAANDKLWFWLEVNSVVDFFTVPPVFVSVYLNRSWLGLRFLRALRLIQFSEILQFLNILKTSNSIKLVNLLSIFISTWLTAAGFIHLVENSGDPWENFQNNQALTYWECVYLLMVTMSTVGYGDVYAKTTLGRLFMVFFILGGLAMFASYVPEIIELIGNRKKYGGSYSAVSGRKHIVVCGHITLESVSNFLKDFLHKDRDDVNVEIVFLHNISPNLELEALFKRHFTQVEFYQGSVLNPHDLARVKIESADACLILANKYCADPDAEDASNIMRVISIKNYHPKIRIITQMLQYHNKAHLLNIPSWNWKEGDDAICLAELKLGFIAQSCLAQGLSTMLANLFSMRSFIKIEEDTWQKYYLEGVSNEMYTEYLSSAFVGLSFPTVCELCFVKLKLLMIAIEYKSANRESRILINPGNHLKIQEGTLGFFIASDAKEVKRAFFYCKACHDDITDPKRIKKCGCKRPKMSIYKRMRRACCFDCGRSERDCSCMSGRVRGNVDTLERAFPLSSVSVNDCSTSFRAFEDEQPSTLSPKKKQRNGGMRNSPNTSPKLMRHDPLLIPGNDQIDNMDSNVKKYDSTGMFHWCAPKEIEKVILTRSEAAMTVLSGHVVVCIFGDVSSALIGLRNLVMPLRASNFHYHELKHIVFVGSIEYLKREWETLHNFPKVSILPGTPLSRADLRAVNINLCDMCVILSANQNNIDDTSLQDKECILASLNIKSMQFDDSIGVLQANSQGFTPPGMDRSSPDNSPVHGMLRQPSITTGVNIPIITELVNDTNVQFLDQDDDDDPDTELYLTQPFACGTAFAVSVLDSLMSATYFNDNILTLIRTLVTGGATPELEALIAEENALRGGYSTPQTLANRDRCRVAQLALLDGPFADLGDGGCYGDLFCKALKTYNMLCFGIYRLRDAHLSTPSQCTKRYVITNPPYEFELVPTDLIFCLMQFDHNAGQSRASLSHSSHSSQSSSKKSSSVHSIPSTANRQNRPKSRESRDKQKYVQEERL

Consider `O=C(Nc1cc(Cl)ccc1-c1nnn[nH]1)c1cc(C(F)(F)F)cc(C(F)(F)F)c1` [Compound 4, N-[5-Chloro-2-(1H-tetrazol-5-yl)-phenyl]-3,5-bis-trifluoromethyl-benzamide], for which the melting point (as a rule, the temperature, or range, at which the solid turns liquid) lay within 247 to 249 °C.
On the same count and under the same terms, with `O=C(Nc1cc(Cl)ccc1-c1nnn[nH]1)c1ccc2ccccc2c1O` [Compound 8, 1-Hydroxy-naphthalene-2-carboxylic acid [5-chloro-2-(1H-tetrazol-5-yl)-phenyl]-amide] the figure was 221 to 225 °C.
For `CCCN(CCC)S(=O)(=O)c1ccc(C(=O)Nc2cc(Cl)ccc2-c2nnn[nH]2)cc1` [Compound 12, N-[5-Chloro-2-(1H-tetrazol-5-yl)-phenyl]-4-dipropylsulfamoyl-benzamide], the “ΔVmax, maximal left shift of the BK activation curve” value in data set [1] (BKCa channels expressed in Xenopus oocytes, 0.01-31.6 μM, sigmoidal logistic fit) was −110 mV. Moreover, the EC50 in data set [1] (BKCa channels expressed in Xenopus oocytes, ramp −120 to +120 mV, 0.01-31.6 μM, ΔV at control conductance level of +100 mV, sigmoidal logistic fit, read-out: EC50 for the left-shift of the BK activation curve (ΔV)) is 1300 nM. The “BK current level at depolarizing potentials” value in data set [1] (increasing concentrations (0.01-31.6 μM) applied, 100 s each, ramp protocol) is “marked increase in the current level at depolarizing potentials”.
